Values quoted from earlier work in patent publication US6617154B1, “Electroporation chamber including an electrode having a continuous, crystalline metal nitride coating” (MaxCyte, Inc., priority 1996, dated 2003).

How the values were obtained:
[1] = experimental animals; DPG or its precursors
[2] = test system: mammalian erythrocyte membrane
[3] = under ordinary circumstances, not bound to hemoglobin
hemoglobin [4] = target: T1, hemoglobin (Homo sapiens, UniProt P68871); conditions: pH 7.4, 37 degrees C
hemoglobin [5] = target: T1, hemoglobin; conditions: relative to DPG

T1 sequence (P68871 2-147 limits assumed): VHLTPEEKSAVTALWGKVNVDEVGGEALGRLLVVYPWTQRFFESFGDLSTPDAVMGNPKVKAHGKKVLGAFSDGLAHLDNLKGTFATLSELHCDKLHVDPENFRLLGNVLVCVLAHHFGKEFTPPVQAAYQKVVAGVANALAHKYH
T1 sequence (P69905 2-142 partner limits assumed): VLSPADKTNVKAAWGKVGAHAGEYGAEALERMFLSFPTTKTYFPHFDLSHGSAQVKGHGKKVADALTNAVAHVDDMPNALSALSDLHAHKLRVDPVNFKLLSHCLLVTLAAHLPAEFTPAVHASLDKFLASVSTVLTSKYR

Row | passage through the mammalian erythrocyte membrane [2] | P50 of hemoglobin (hemoglobin [4]) [mm Hg] | affinity to hemoglobin, higher than DPG (hemoglobin [5]) [fold] | SMILES | duration of transient elevation of oxygen deposition [1] [h] | toxicity [3]
1 | – | – | – | O=C(O)C(COP(=O)(O)O)OP(=O)(O)O (centres unmarked) [DPG, 2,3-diphosphoglycerate] | 6 to 12 | –
2 | unable to pass | ≤ 96.4 | 1000 | O=P(O)(O)O[C@H]1[C@H](OP(=O)(O)O)[C@@H](OP(=O)(O)O)[C@H](OP(=O)(O)O)[C@@H](OP(=O)(O)O)[C@H]1OP(=O)(O)O [IHP, inositol hexaphosphate] | – | toxic
